Measured values as given in US9187458B2, “Cyanoquinoline derivatives” (Tianjin Hemay Bio-Tech Co., LTD., priority 2010, dated 2015).

Columns and labels:
Assay type in all cases: cell-based
Fadu cells = assay: Fadu Cell Growth Inhibition Test (MTT Assay); conditions: Homo sapiens, 72 h incubation
Summary of the method: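 Fadu head and neck cancer cells in EMEM + 10% FBS, 6000 cells/well, dosed next day and incubated 72 h at 37 °C, 5% CO2. MTT 0.5 mg/ml for 3 h, DMSO solubilization, OD at 490 nm; inhibition ratio from positive and negative controls, IC50 from fitted curve.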

AsPC-1 cells = assay: AsPC-1 Cell Growth Inhibition Test (MTT Assay); conditions: Homo sapiens, ASPC1, 72 h incubation
Description: AsPC-1 Cell Growth Inhibition Test (MTT Assay)
Cell strains: AsPC-1 (human pancreatic cancer cell strains);
(§1) 1. A plate (10 cm) of cells in logarithmic growth phase normally cultured was collected;
(§2) 2. The culture solution was sucked out. The plate was washed with 5 ml of PBS 1-2 times;
(§3) 3. PBS was sucked out. 1.5 ml of 0.25% pancreatin was added to infiltrate the cells for 1 min;
4. The pancreatin was sucked out. The culture plate was placed in an incubator. Digestion was carried out for about 7.5 min at 37° C.;
(§4) 5. 4.5 ml of complete culture solution was added to the culture plate to stop the digestion. The cells were carefully scoured with micropipette (1 ml) to give a uniform cell suspension. The suspension was implanted into a 96-well cell culture plate by 8000 cells/100 μl per well. The culture plate was incubated overnight under 5% CO2 at 37° C. In day 2, 100 μl of culture solution comprising a compound was added in each well, and further incubated for 72 h under 5% CO2 at 37° C.
(§5) 6. The culture solution was sucked out;
(§6) 7. 100 μl of serum-free culture solution containing 0.5 mg/ml MTT was added in each well, and incubated for 3 h;
(§7) 8. The culture solution was carefully sucked out;
9. 100 μl of DMSO was added in each welland vibrated to dissolve;
(§8) 10. OD values were determined at 490 nM.
(§9) 1. Calculation of Relative Inhibition Ratio The inhibition ratio of a compound on cell growth=(PC−n)/(PC−NC)×100%
(§10) IC50: Concentration of a compound where inhibition ratio was 50%. IC50 values were fitted with Origin7.5.

CCRF-CEM/T cells = assay: CCRF-CEM/T Cell Growth Inhibition Test (MTT Assay); conditions: Homo sapiens, CCRF-CEM/T cells (resistant to paclitaxel), 72 h incubation
Description: CCRF-CEM/T Cell Growth Inhibition Test (MTT Assay)
Cell strains: CCRF-CEM/T (human acute lymphocytic cell leukemia cells);
triple lysate solution: 10% SDS, 5% isobutanol, 0.012M HCl.
1. Cells were cultured to exponential phase. The cells were suspension cells;
2. The cells were collected by centrifuge. The resulting cells were resuspended in a complete culture medium to a desired concentration. The cells suspension was implanted into a 96-well cell culture plate by 20000 cells per well. A compound was added in the wellsuch that the final volume of the system was 120 μl. The system was further incubated for 72 h under 5% CO2 at 37° C.
7. 30 μl of serum-free culture solution containing 2.5 mg/ml MTT was added in each well, and incubated for 3 h;
8. 150 μl of triple lysate solution was added in each well and placed to dissolve at the room temperature;
9. OD values were determined at 570 nM.
as §9, §10

SK-OV-3 cells = assay: SK-OV-3 Cell Growth Inhibition Test (MTT Assay); conditions: Homo sapiens, 72 h incubation
Description: SK-OV-3 Cell Growth Inhibition Test (MTT Assay)
Cell strains: SK-OV-3 (human ovarian cancer cell strains);
Culture medium: 90% McCoy's 5A+10% FBS;
as §1, §2, §3
4. The pancreatin was sucked out. The culture plate was placed in an incubator. Digestion was carried out for about 5 min at 37° C.;
as §4, with “stop the digestion.T the cells were” for “stop the digestion. The cells were”, “cell culture disc by 4000” for “cell culture plate by 8000”, “disc by 4000 cells/100 μl” for “plate by 8000 cells/100 μl”
as §5, §6, §7
9. 100 μl of DMSO was added in each well and vibrated to dissolve;
as §8, §9, §10

Row | SMILES | IC50 (Fadu cells) [nM] | IC50 (AsPC-1 cells) [nM] | IC50 (CCRF-CEM/T cells) [nM] | IC50 (SK-OV-3 cells) [nM]
1 | CC(C)(C)NC/C=C/C(=O)Nc1cc2c(Nc3ccc(OCc4ccccn4)c(Cl)c3)c(C#N)cnc2cc1O[C@H]1CCOC1 [Example 153, (S,E)-N-(4-(3-CHLORO-4-(PYRIDIN-2-YL-METHOXY)PHENYLAMINO)-3-CYANO-7-(TETRAHYDROFURAN-3-YL-OXY)QUINOLIN-6-YL)-4-(TERT-BUTYLAMINO)-BUT-2-ENAMIDE] | 231 | – | – | –
2 | CN(C)C/C=C/C(=O)Nc1cc2c(Nc3ccc(OCc4ccccc4Cl)c(Cl)c3)c(C#N)cnc2cc1OC1CCOC1 (stereo not shown) [Example 10, (E)-N-(4-(4-(2-CHLOROBENZYLOXY)-3-CHLOROPHENYLAMINO)-3-CYANO-7-(TETRAHYDROFURAN-3-YL-OXY)QUINOLIN-6-YL)-4-(DIMETHYLAMINO)-BUT-2-ENAMIDE] | – | 1000 | – | –
3 | CN(C)C/C=C/C(=O)Nc1cc2c(Nc3ccc(OCc4ccccc4F)c(Cl)c3)c(C#N)cnc2cc1OC1CCOC1 (stereo not shown) [Example 8, (E)-N-(4-(4-(2-FLUOROBENZYLOXY)-3-CHLOROPHENYLAMINO)-3-CYANO-7-(TETRAHYDROFURAN-3-YL-OXY)QUINOLIN-6-YL)-4-(DIMETHYLAMINO)-BUT-2-ENAMIDE] | 188 | 878 | – | –
4 | C#Cc1cccc(Nc2c(C#N)cnc3cc(O[C@H]4CCOC4)c(NC(=O)/C=C/CN4CCOCC4)cc23)c1 [Example 145, (S,E)-N-(3-CYANO-4-(3-ETHYNYLPHENYLAMINO)-7-(TETRAHYDROFURAN-3-YL-OXY)QUINOLIN-6-YL)-4-(MORPHOLIN-4-YL)-BUT-2-ENAMIDE] | 194 | – | – | –
5 | CN(C)C/C=C/C(=O)Nc1cc2c(Nc3ccc(OCc4ccccc4)c(Cl)c3)c(C#N)cnc2cc1OC1CCOC1 (stereo not shown) [Example 12, (E)-N-(4-(4-(BENZYLOXY)-3-CHLOROPHENYLAMINO)-3-CYANO-7-(TETRAHYDROFURAN-3-YL-OXY)QUINOLIN-6-YL)-4-(DIMETHYLAMINO)-BUT-2-ENAMIDE] | 202 | 1200 | – | –
6 | N#Cc1cnc2cc(O[C@H]3CCOC3)c(NC(=O)/C=C/CN3CCCCC3)cc2c1Nc1ccc(OCc2ccccn2)c(Cl)c1 [Example 151, (S,E)-N-(4-(3-CHLORO-4-(PYRIDIN-2-YL-METHOXY)PHENYLAMINO)-3-CYANO-7-(TETRAHYDROFURAN-3-YL-OXY)QUINOLIN-6-YL)-4-(PIPERIDIN-1-YL)-BUT-2-ENAMIDE] | 244 | 810 | 3600 | –
7 | CN(C)C/C=C/C(=O)Nc1cc2c(Nc3cccc(Br)c3)c(C#N)cnc2cc1OC1CCOC1 (stereo not shown) [Example 7, (E)-N-(4-(3-BROMOPHENYLAMINO)-3-CYANO-7-(TETRAHYDROFURAN-3-YL-OXY)QUINOLIN-6-YL)-4-(DIMETHYLAMINO)-BUT-2-ENAMIDE] | 474 | – | – | –
8 | Cc1ccccc1COc1ccc(Nc2c(C#N)cnc3cc(OC4CCOC4)c(NC(=O)/C=C/CN(C)C)cc23)cc1Cl (stereo not shown) [Example 17, (E)-N-(4-(4-(2-METHYLBENZYLOXY)-3-CHLOROPHENYLAMINO)-3-CYANO-7-(TETRAHYDROFURAN-3-YL-OXY)QUINOLIN-6-YL)-4-(DIMETHYLAMINO)-BUT-2-ENAMIDE] | – | 1000 | – | –
9 | CN(C)C/C=C/C(=O)Nc1cc2c(Nc3ccc(OCc4ccc(Cl)cc4)c(Cl)c3)c(C#N)cnc2cc1OC1CCOC1 (stereo not shown) [Example 16, (E)-N-(4-(4-(4-CHLOROBENZYLOXY)-3-CHLOROPHENYLAMINO)-3-CYANO-7-(TETRAHYDROFURAN-3-YL-OXY)QUINOLIN-6-YL)-4-(DIMETHYLAMINO)-BUT-2-ENAMIDE] | – | 810 | – | –
10 | C#Cc1cccc(Nc2c(C#N)cnc3cc(O[C@H]4CCOC4)c(NC(=O)/C=C/CN(C)Cc4ccccc4)cc23)c1 [Example 149, (S,E)-N-(3-CYANO-4-(3-ETHYNYLPHENYLAMINO)-7-(TETRAHYDROFURAN-3-YL-OXY)QUINOLIN-6-YL)-4-(N-METHYLBENZYLAMINO)-BUT-2-ENAMIDE] | 163 | – | – | –
11 | N#Cc1cnc2cc(O[C@H]3CCOC3)c(NC(=O)/C=C/CN3CCOCC3)cc2c1Nc1ccc(OCc2ccccn2)c(Cl)c1 [Example 152, (S,E)-N-(4-(3-CHLORO-4-(PYRIDIN-2-YL-METHOXY)PHENYLAMINO)-3-CYANO-7-(TETRAHYDROFURAN-3-YL-OXY)QUINOLIN-6-YL)-4-(MORPHOLIN-4-YL)-BUT-2-ENAMIDE] | 170 | – | – | –
12 | CN(C)C/C=C/C(=O)Nc1cc2c(Nc3ccc(OCc4cccc(F)c4)c(Cl)c3)c(C#N)cnc2cc1OC1CCOC1 (stereo not shown) [Example 9, (E)-N-(4-(4-(3-FLUOROBENZYLOXY)-3-CHLOROPHENYLAMINO)-3-CYANO-7-(TETRAHYDROFURAN-3-YL-OXY)QUINOLIN-6-YL)-4-(DIMETHYLAMINO)-BUT-2-ENAMIDE] | 219 | 458 | – | 469
13 | CN(C)C/C=C/C(=O)Nc1cc2c(Nc3ccc(OCc4cccc(C#N)c4)c(Cl)c3)c(C#N)cnc2cc1OC1CCOC1 (stereo not shown) [Example 15, (E)-N-(4-(4-(3-CYANOBENZYLOXY)-3-CHLOROPHENYLAMINO)-3-CYANO-7-(TETRAHYDROFURAN-3-YL-OXY)QUINOLIN-6-YL)-4-(DIMETHYLAMINO)-BUT-2-ENAMIDE] | 260 | 1100 | – | –
14 | C#Cc1cccc(Nc2c(C#N)cnc3cc(O[C@H]4CCOC4)c(NC(=O)/C=C/CN(CC)CC)cc23)c1 [Example 143, (S,E)-N-(3-CYANO-4-(3-ETHYNYLPHENYLAMINO)-7-(TETRAHYDROFURAN-3-YL-OXY)QUINOLIN-6-YL)-4-(DIETHYLAMINO)-BUT-2-ENAMIDE] | 127 | – | – | –
15 | Cc1ccc(COc2ccc(Nc3c(C#N)cnc4cc(OC5CCOC5)c(NC(=O)/C=C/CN(C)C)cc34)cc2Cl)cc1 (stereo not shown) [Example 19, (E)-N-(4-(4-(4-METHYLBENZYLOXY)-3-CHLOROPHENYLAMINO)-3-CYANO-7-(TETRAHYDROFURAN-3-YL-OXY)QUINOLIN-6-YL)-4-(DIMETHYLAMINO)-BUT-2-ENAMIDE] | – | 621 | – | –
16 | CN(C)C/C=C/C(=O)Nc1cc2c(Nc3ccc(OCc4ccccc4C#N)c(Cl)c3)c(C#N)cnc2cc1OC1CCOC1 (stereo not shown) [Example 13, (E)-N-(4-(4-(2-CYANOBENZYLOXY)-3-CHLOROPHENYLAMINO)-3-CYANO-7-(TETRAHYDROFURAN-3-YL-OXY)QUINOLIN-6-YL)-4-(DIMETHYLAMINO)-BUT-2-ENAMIDE] | 300 | 922 | – | –
17 | CN(C)C/C=C/C(=O)Nc1cc2c(Nc3ccc(OCc4cccc(Cl)c4)c(Cl)c3)c(C#N)cnc2cc1OC1CCOC1 (stereo not shown) [Example 11, (E)-N-(4-(4-(3-CHLOROBENZYLOXY)-3-CHLOROPHENYLAMINO)-3-CYANO-7-(TETRAHYDROFURAN-3-YL-OXY)QUINOLIN-6-YL)-4-(DIMETHYLAMINO)-BUT-2-ENAMIDE] | 187 | 1200 | – | –
18 | CCN(CC)C/C=C/C(=O)Nc1cc2c(Nc3ccc(OCc4ccccn4)c(Cl)c3)c(C#N)cnc2cc1O[C@H]1CCOC1 [Example 150, (S,E)-N-(4-(3-CHLORO-4-(PYRIDIN-2-YL-METHOXY)PHENYLAMINO)-3-CYANO-7-(TETRAHYDROFURAN-3-YL-OXY)QUINOLIN-6-YL)-4-(DIETHYLAMINO)-BUT-2-ENAMIDE] | 207 | 895 | 3760 | –
19 | C#Cc1cccc(Nc2c(C#N)cnc3cc(O[C@H]4CCOC4)c(NC(=O)/C=C/CNC(C)(C)C)cc23)c1 [Example 146, (S,E)-N-(3-CYANO-4-(3-ETHYNYLPHENYLAMINO)-7-(TETRAHYDROFURAN-3-YL-OXY)QUINOLIN-6-YL)-4-(TERT-BUTYLAIMINO)-BUT-2-ENAMIDE] | 200 | – | – | –
20 | C#Cc1cccc(Nc2c(C#N)cnc3cc(O[C@H]4CCOC4)c(NC(=O)/C=C/CN4CCCCC4)cc23)c1 [Example 144, (S,E)-N-(3-CYANO-4-(3-ETHYNYLPHENYLAMINO)-7-(TETRAHYDROFURAN-3-YL-OXY)QUINOLIN-6-YL)-4-(PIPERIDIN-1-YL)-BUT-2-ENAMIDE] | 103 | – | – | –
